Results as given in patent US5378725A, “Inhibition of phosphatidylinositol 3-kinase with wortmannin and analogs thereof” (The Arizona Board of Regents, priority 1993, dated 1995).
pIC50: −log10 of the molar value. Where two headings read alike, the source gives them in different places.

What was measured:
[1] = target: T1, purified bovine brain PI 3-kinase (Bos taurus, UniProt P32871); assay: Assay of purified PI 3-kinase activity (32P incorporation into phosphatidylinositol, TLC/scintillation); assay type: biochemical; conditions: bovine brain purified PI 3-kinase; for IC50: read-out: IC50 (ng/mL) (converted)
T1 construct: PI 3-kinase was prepared from bovine brain; from tissue; host or cells: bovine brain
Procedure: In another, preferred, method, PI 3-kinase was prepared from bovine brain. Two bovine brains (wet weight about 900 g) were obtained from a local slaughterhouse within minutes of slaughter, packed on ice, and homogenized within one hour. Brains were trimmed of excess fat and blood vessels and then homogenized using a Tekmar Tissuemizer (Cincinnati, Ohio) at 4° C. in 20 mM of Tris(pH 8.3) containing 250 mM of sucrose, 6 mM of β-mercaptoethanol, 1 μg/ml of leupeptin, 1 μg/ml of pepstatin A, 0.4 mM of PMSF, and 1 mM of MgCl2.
Following centrifugation for 60 minutes at 10,000×g, the DH of the supernatant (about 1200 mL) was lowered to 5.75 using dropwise addition of 1M acetic acid at 4° C. After stirring for an additional 15 minutes at 4° C., the solution was centrifuged for 60 minutes at 13,500×g. The supernatant was discarded. Pellets were resuspended in Buffer A (20 mM of Tris, pH 8.3, containing 6 mM of β-mercaptoethanol, 0.1 mM of ethylene glycol-bis(β-aminoethyl ether) N,N,N',N'-tetraacetic acid (EGTA), 1 μg/mL of leupeptin, 1 μg/mL of pepstatin A, and 1 mM of MgCl2), and loaded onto a Fast Flow Q Sepharose column (300 ml) at a flow rate of 5 mL/min at 4° C. After loading, the column was washed with 3 volumes of Buffer A containing 0.1M of KCl and the kinase was then eluted with a linear gradient of Buffer A/0.1M KCl to Buffer A/O.6M KCl at 3 mL/min over 7 volumes.
Fractions were assayed for PI 3-kinase activity using 10 μL of the fraction and phosphatidylinositol as substrate as described below. […] The PI 3-kinase pool was subjected to a 40% ammonium sulfate precipitation. Following centrifugation (60 minutes at 13,500×g), pellets were resuspended in Buffer B (10 mM of potassium phosphate, pH 7.4, containing 6 mM of β-mercaptoethanol, 1 μg/mL of leupeptin, 1 μg/mL of pepstatin A, and 1 mM of MgCl2), and loaded onto a 50 mL hydroxylapatite column (Calbiochem, Inc., La Jolla, Calif.) at 2.5 mL/minute. The column was washed with 150 mL Buffer B until the A280 baseline reached zero, and the kinase was then eluted with a linear gradient of 10-320 mM of KH2 PO4 at 1 mL/minute over 450 minutes.
Active fractions were pooled and then loaded at 3 mL/minute onto a MonoS column (8 ml) (Pharmacia, Inc., Piscataway, N.J.) equilibrated in Buffer C (50 mM of MES, pH 6.2, containing 6 mM of β-mercaptoethanol, 0.1 mM of EGTA, 1 μg/mL of leupeptin, 1 μg/mL of pepstatin A, and 1 mM of MgCl2). PI 3-kinase was eluted with a linear gradient of 0-0.4M KCl in Buffer C over 120 minutes. […] Therefore, the MonoS flow-through was concentrated by tangential flow filtration on a Mini-Ultrasette Omega 50 K membrane (Filtron, Inc., Northborough, Mass.) and diluted in Buffer C to lower the conductivity. The material was then reloaded onto the MonoS column using the above conditions. […] Two pools of phosphatidylinositol kinase activity were obtained in the gradient; each was assayed for PI 3-kinase and PI 4-kinase activity.
Pool I from the MonoS column was diluted with Buffer A and chromatographed on MonoQ (1 ml) and ehted with a gradient of 0-0.4M KCl in Buffer A. The final pool was assayed for PI 3-kinase and PI 4-kinase activity.
PI 3-kinase activity was measured as previously described by Matter, W. F., et al., Biochemical and Biophysical Research Communications, 186:624-631 (1992).

PI 3-kinase = conditions: Matter, et al.; cited from earlier work
protein kinase C [2] = conditions: Matter, et al.; cited from earlier work
PI 4-kinase [3] = conditions: Matter, et al.; cited from earlier work
phospholipase C = assay: Effect on phospholipase C; assay type: biochemical
PI 4-kinase [4] = assay: Effect on PI 4-kinase; assay type: biochemical
protein kinase C [5] = assay: Effect on protein kinase C; assay type: biochemical
[6] = test system: PI 3-kinase in v-sis NIH 3T3 cells; assay: Assay of whole cell PI 3-kinase activity (PDGF-stimulated phosphatidylinositol-3-phosphate formation); assay type: cell-based; conditions: 1.3 μM, 100 ng/mL PDGF, 10 min contact before stimulation
Procedure: The cells were washed with phosphate-free DMEM and incubated in the same medium containing 0.1% fatty acid free bovine serum, albumin and 0.15 mCi/mL [^32 P]H3 PO4 (ICN Biomedicals, Irvine, Calif.) for 70 minutes. Inhibitor candidates were prepared using the above-stated procedure, and placed in contact with the cells for 10 minutes prior to their stimulation. The cells were stimulated with 100 ng/mL of PDGF for 10 minutes. To measure phosphatidylinositol-3-phosphates in the cells, the medium was removed and the cells washed once with phosphate buffered saline before adding 4 mL/flask of HCl:methanol (1:1 by volume). The cells were scraped from the flasks and total lipids were extracted by the method described by Folch, J., et al., J. Biol. Chem., 226:497-509 (1957). Deacylated lipids were prepared using methylamine via the method described by Clark, N. G., et al., BioChem J., 195: 301-306, (1981), and separated by HPLC using a 10 cm RAC II Partisil 5 SAX column (Whatman, Kent, U.K.) eluted with an NH4 H2 PO4 gradient at a flow of 0.8 mL/minute as described by Auger, K. R., et al., Methods in Inositide Research, pp. 159-166 [Irvine, R. F., Ed., Raven Press, Ltd., New York, N.Y. (1990)]. Detection of the eluting peaks was by a radioactive flow detector (Flo-One Beta, Model A515, Radiomatic Instruments, Meriden, Conn.). […]

[7] = target: c-src protein tyrosine kinase (Homo sapiens, UniProt P12931); assay: Effect on c-src protein tyrosine kinase; assay type: biochemical
[8] = IC50 (ng/mL), 10 min preincubation, 20 μM ATP, 3% DMSO
[9] = IC50, molar value in parentheses, value printed in parentheses beside ng/mL
[10] = 10 min preincubation, 20 μM ATP, 3% DMSO

T1 sequence (P32871 whole entry): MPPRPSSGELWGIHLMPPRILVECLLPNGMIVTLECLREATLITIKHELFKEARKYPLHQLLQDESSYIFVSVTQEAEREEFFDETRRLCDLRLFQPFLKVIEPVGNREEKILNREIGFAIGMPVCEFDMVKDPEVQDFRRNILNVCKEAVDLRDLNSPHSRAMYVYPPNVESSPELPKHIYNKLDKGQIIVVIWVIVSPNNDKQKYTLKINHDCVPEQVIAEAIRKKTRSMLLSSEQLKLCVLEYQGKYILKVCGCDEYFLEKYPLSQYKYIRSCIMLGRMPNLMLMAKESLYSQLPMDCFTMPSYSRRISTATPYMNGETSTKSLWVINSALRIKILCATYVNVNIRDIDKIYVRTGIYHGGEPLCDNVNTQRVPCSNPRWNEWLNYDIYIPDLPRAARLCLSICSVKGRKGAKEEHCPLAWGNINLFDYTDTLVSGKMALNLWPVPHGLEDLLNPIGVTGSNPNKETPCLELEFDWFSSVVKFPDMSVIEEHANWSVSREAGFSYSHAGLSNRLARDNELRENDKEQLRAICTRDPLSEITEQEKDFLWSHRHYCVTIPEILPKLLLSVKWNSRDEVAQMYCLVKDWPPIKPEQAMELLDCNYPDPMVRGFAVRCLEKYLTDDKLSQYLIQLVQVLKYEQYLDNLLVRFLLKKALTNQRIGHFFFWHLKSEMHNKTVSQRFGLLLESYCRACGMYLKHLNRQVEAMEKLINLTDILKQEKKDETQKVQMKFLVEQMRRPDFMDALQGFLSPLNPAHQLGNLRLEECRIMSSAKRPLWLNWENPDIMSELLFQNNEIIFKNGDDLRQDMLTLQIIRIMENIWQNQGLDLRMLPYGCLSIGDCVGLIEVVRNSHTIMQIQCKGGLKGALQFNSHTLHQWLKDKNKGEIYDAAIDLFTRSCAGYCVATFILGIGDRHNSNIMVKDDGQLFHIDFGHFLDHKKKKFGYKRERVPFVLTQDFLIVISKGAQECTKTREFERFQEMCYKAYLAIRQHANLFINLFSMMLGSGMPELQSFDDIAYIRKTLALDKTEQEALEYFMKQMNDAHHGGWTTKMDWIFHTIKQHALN
T1 sequence (P23727 whole entry partner): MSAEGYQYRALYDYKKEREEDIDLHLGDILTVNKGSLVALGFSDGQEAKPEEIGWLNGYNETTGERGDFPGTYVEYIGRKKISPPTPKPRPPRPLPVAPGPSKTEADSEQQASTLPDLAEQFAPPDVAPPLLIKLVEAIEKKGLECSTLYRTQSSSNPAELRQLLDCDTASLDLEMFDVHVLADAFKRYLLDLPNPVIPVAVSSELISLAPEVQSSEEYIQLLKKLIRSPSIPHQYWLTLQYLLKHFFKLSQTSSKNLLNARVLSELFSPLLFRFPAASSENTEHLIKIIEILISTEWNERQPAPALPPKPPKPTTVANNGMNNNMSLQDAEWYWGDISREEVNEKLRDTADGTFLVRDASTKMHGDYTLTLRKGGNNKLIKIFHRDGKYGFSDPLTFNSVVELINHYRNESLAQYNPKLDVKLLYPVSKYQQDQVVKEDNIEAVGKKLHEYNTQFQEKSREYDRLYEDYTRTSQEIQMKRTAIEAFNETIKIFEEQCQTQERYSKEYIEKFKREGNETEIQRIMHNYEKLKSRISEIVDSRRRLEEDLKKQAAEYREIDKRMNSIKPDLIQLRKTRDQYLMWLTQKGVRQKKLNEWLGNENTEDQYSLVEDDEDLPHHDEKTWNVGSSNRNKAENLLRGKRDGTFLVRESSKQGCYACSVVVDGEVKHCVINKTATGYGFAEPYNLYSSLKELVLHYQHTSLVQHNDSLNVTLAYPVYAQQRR
Sequence of c-src protein tyrosine kinase (P12931 whole entry): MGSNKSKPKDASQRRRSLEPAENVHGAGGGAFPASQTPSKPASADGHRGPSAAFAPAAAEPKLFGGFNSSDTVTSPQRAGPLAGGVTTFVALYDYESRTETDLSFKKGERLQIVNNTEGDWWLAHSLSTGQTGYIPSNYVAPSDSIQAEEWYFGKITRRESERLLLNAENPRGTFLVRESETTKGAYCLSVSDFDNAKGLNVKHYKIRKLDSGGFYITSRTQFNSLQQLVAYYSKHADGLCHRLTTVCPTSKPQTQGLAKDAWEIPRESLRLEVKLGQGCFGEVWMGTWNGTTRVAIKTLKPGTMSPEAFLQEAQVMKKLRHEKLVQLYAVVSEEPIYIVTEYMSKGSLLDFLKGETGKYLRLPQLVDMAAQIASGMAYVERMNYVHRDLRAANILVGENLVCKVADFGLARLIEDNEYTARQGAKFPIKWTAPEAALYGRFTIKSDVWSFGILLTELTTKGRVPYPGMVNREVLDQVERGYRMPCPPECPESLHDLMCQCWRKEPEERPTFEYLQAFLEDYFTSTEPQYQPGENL

Q: Which results are given for `COC[C@H]1OC(=O)c2coc3c2[C@@]1(C)C1=CC[C@]2(C)C(=O)CC[C@H]2[C@@H]1C3=O` [II, Δ9,11-dehydrodesacetoxywortmannin]?
A: pIC50 [1, 8]: 7.27; pIC50 [1, 9]: 7.23

Q: With `COC(=O)c1coc2c(O)c3c(c(C)c12)C=C[C@]1(C)C(=O)CC[C@@H]31` [IIIb, opened A-ring methyl ester of wortmannin] as the compound, how does the IC50 [1, 10] read?
A: 4600 nM

Q: Which results are given for `COC[C@H]1OC(=O)c2coc3c2[C@@]1(C)C1=C(C3=O)[C@@H]2CCC(=O)[C@@]2(C)CC1` [Ib, 11-desacetoxywortmannin]?
A: IC50 [1, 10]: 16.7 nM; pIC50 ([1]; value printed in parentheses beside ng/mL, read-out: IC50, molar value in parentheses): 7.78

Q: Which results are given for `O=c1c(O)c(-c2ccc(O)c(O)c2)oc2cc(O)cc(O)c12` [quercetin]?
A: inhibition of PI 3-kinase (PI 3-kinase): inhibit; inhibition of protein kinase C (protein kinase C [2]): inhibit; inhibition of PI 4-kinase (PI 4-kinase [3]): inhibit

Q: With `COC[C@H]1OC(=O)c2coc3c2[C@@]1(C)C1=C(C3=O)[C@@H]2CCC(=O)[C@@]2(C)C[C@H]1OC(C)=O` [Ia, wortmannin] as the compound, how does the “effect on phospholipase C” value (phospholipase C) read?
A: no effect

Q: And the “effect on PI 4-kinase” value (PI 4-kinase [4])?
A: no effect

Q: What about the “effect on protein kinase C” value (protein kinase C [5]) of the same compound?
A: no effect

Q: What about the pIC50 [1, 8] of the same compound?
A: 8.38

Q: What about the pIC50 [1, 9] of the same compound?
A: 8.38

Q: What about the “inhibition of platelet derived growth factor stimulated phosphatidylinositol-3-phosphate formation in whole cells” value [6] of the same compound?
A: almost complete inhibition

Q: And the “effect on c-src protein tyrosine kinase” value [7]?
A: no effect
